Laboratory results: US20260109712A1, “RIFAMYCINS FOR NONTUBERCULOUS MYCOBACTERIA” (priority 2022, published 2026)
In brackets after ≈: the same amount, converted by molar mass.

How the values were obtained:
[1] = system: M. abscessus ATCC 19977; test: MIC assay in 96-well plate format, wild-type strain; type: cell-based, Mycobacterium abscessus; details: for MICWT: Table 10; for MIC: Table 15, heterocyclic aromatic carbamates, read-out: WT Mab MIC
Procedure: (§1) MIC determination was carried out in 96-well plate format as previously described.^[13-14] 96-well plates were initially set up with 100 μL of 7H9 per well. For each compound, a ten-point two-fold dilution series starting at twice the desired highest concentration was dispensed onto the 96-well plates using a Tecan D300e Digital Dispenser, with the DMSO concentration normalized to 2%. M. abscessus culture grown to mid-log phase (OD600=0.4-0.6) was diluted to OD600=0.1 (1×10^7 CFU/mL). […] Untreated control wells are included on each plate that contain bacteria suspension and 1% DMSO. Plates were sealed with parafilm, stored in boxes with wet paper towels and incubated at 37° C. with shaking (110 RPM). Plates were incubated for 3 days. To determine growth, OD600 was measured using a Tecan Infinite M200 plate reader on Day 0 and Day 3. Two biological replicates were performed. Clarithromycin was included in each experiment as a positive control.
(§2) For each well on the 96-well plate, bacterial growth was calculated by subtracting the Day 0 OD600 value from the Day 3 OD600 value. […] For compound-containing wells, percentage growth was calculated by dividing their growth values by the average drug-free bacterial growth for the compound series and multiplying by 100. For each compound series, we plotted percentage growth versus compound concentration.

[2] = system: Δarr M. abscessus; test: MIC assay, isogenic arr-deleted strain; type: cell-based, Mycobacterium abscessus; details: Table 10
Procedure: as §1, §2

[3] = Plasma protein binding assay (rapid equilibrium dialysis); type: in vitro ADME
Procedure: DMSO stocks were spiked into plasma to a concentration of 10,000 ng/mL. 200 μL of spiked plasma was pipetted into the sample chamber of the rapid equilibrium dialysis (RED) cartridge. 350 μL of PBS was added to the adjacent cartridge. The plate containing the RED was sealed and incubated at 37° C. on the thermomixer at 300 RPM for 4 h. After incubation, 50 μL aliquots of plasma were removed and added to 50 μL of blank plasma in a deep well plate (1:1). Similarly, 50 μL aliquots of PBS were removed and added to 50 μL of blank plasma. This created an identical matrix between buffer and non-buffer samples. Samples were processed and quantified as specified in the LC-MS/MS analytical method.

Row | SMILES | MICWT [1] [µM] | MICΔorr [2] [µM] | plasma unbound fraction ([3]; Table 10) [%] | MIC [1] [µM] | ƒu [3] [%] | plasma unbound fraction ([3]; plasma) [%]
1 | CO[C@H]1/C=C/O[C@@]2(C)Oc3c(C)c(O)c4c(c3C2=O)C2=NC3(CCN(CC(C)C)CC3)NC2=C(NC(=O)/C(C)=C/C=C/[C@H](C)[C@H](O)[C@@H](C)[C@@H](O)[C@@H](C)[C@H](OC(=O)c2ccccc2F)[C@@H]1C)C4=O [UMN23] | 0.06 | 0.058 | 0.05 |  |  | 
2 | CO[C@H]1/C=C/O[C@@]2(C)Oc3c(C)c(O)c4c(c3C2=O)C2=NC3(CCN(CC(C)C)CC3)NC2=C(NC(=O)/C(C)=C/C=C/[C@H](C)[C@H](O)[C@@H](C)[C@@H](O)[C@@H](C)[C@H](OC(=O)c2ccccc2Cl)[C@@H]1C)C4=O [UMN24] | 0.043 | 0.049 | 0.06 |  |  | 
3 | COc1ccccc1C(=O)O[C@H]1[C@H](C)[C@H](O)[C@H](C)[C@@H](O)[C@@H](C)/C=C/C=C(\C)C(=O)NC2=C3NC4(CCN(CC(C)C)CC4)N=C3c3c(c(O)c(C)c4c3C(=O)[C@@](C)(O/C=C/[C@H](OC)[C@H]1C)O4)C2=O [UMN29] | 0.03 | 0.03 | 0.22 |  |  | 
4 | CO[C@H]1/C=C/O[C@@]2(C)Oc3c(C)c(O)c4c(c3C2=O)C2=NC3(CCN(CC(C)C)CC3)NC2=C(NC(=O)/C(C)=C/C=C/[C@H](C)[C@H](O)[C@@H](C)[C@@H](O)[C@@H](C)[C@H](OC(=O)Nc2cccc(C)c2)[C@@H]1C)C4=O [UMN35] | 0.034 | 0.036 | 0.05 |  |  | 
5 | CO[C@H]1/C=C/O[C@@]2(C)Oc3c(C)c(O)c4c(c3C2=O)C2=NC3(CCN(CC(C)C)CC3)NC2=C(NC(=O)/C(C)=C/C=C/[C@H](C)[C@H](O)[C@@H](C)[C@@H](O)[C@@H](C)[C@H](OC(=O)Nc2ccccc2-c2ccccc2)[C@@H]1C)C4=O [UMN36] | 0.035 | 0.05 |  | 0.035 (≈ 0.035 µg/mL) | 0.02 | 0.02
6 | COc1ccc(NC(=O)O[C@H]2[C@H](C)[C@H](O)[C@H](C)[C@@H](O)[C@@H](C)/C=C/C=C(\C)C(=O)NC3=C4NC5(CCN(CC(C)C)CC5)N=C4c4c(c(O)c(C)c5c4C(=O)[C@@](C)(O/C=C/[C@H](OC)[C@H]2C)O5)C3=O)cc1 [UMN37] | 0.031 | 0.034 | 0.15 |  |  | 
7 | CO[C@H]1/C=C/O[C@@]2(C)Oc3c(C)c(O)c4c(c3C2=O)C2=NC3(CCN(CC(C)C)CC3)NC2=C(NC(=O)/C(C)=C/C=C/[C@H](C)[C@H](O)[C@@H](C)[C@@H](O)[C@@H](C)[C@H](OC(=O)Nc2ccccc2C)[C@@H]1C)C4=O [UMN39] | 0.014 | 0.017 |  | 0.014 (≈ 0.0131 µg/mL) | 0.1 | 0.13
8 | CO[C@H]1/C=C/O[C@@]2(C)Oc3c(C)c(O)c4c(c3C2=O)C2=NC3(CCN(CC(C)C)CC3)NC2=C(NC(=O)/C(C)=C/C=C/[C@H](C)[C@H](O)[C@@H](C)[C@@H](O)[C@@H](C)[C@H](OC(=O)NCc2cc(-c3ccccc3)no2)[C@@H]1C)C4=O [UMN40] | 0.035 | 0.03 | 0.12 |  |  | 
9 | COc1cccc(NC(=O)O[C@H]2[C@H](C)[C@H](O)[C@H](C)[C@@H](O)[C@@H](C)/C=C/C=C(\C)C(=O)NC3=C4NC5(CCN(CC(C)C)CC5)N=C4c4c(c(O)c(C)c5c4C(=O)[C@@](C)(O/C=C/[C@H](OC)[C@H]2C)O5)C3=O)c1 [UMN42] | 0.025 | 0.03 | 0.09 |  |  | 
10 | CO[C@H]1/C=C/O[C@@]2(C)Oc3c(C)c(O)c4c(c3C2=O)C2=NC3(CCN(CC(C)C)CC3)NC2=C(NC(=O)/C(C)=C/C=C/[C@H](C)[C@H](O)[C@@H](C)[C@@H](O)[C@@H](C)[C@H](OC(=O)Nc2ccc(C)cc2)[C@@H]1C)C4=O [UMN43] | 0.05 | 0.03 | 0.05 |  |  | 
11 | CO[C@H]1/C=C/O[C@@]2(C)Oc3c(C)c(O)c4c(c3C2=O)C2=NC3(CCN(CC(C)C)CC3)NC2=C(NC(=O)/C(C)=C/C=C/[C@H](C)[C@H](O)[C@@H](C)[C@@H](O)[C@@H](C)[C@H](OC(=O)c2nccs2)[C@@H]1C)C4=O [UMN45] | 0.017 | 0.017 | 1.89 |  |  | 
12 | CO[C@H]1/C=C/O[C@@]2(C)Oc3c(C)c(O)c4c(c3C2=O)C2=NC3(CCN(CC(C)C)CC3)NC2=C(NC(=O)/C(C)=C/C=C/[C@H](C)[C@H](O)[C@@H](C)[C@@H](O)[C@@H](C)[C@H](OC(=O)N2CCN(CC(C)C)CC2)[C@@H]1C)C4=O [UMN53] | 0.027 | 0.02 | 0.20 |  |  | 
13 | CO[C@H]1/C=C/O[C@@]2(C)Oc3c(C)c(O)c4c(c3C2=O)C2=NC3(CCN(CC(C)C)CC3)NC2=C(NC(=O)/C(C)=C/C=C/[C@H](C)[C@H](O)[C@@H](C)[C@@H](O)[C@@H](C)[C@H](OC(=O)Nc2ccncn2)[C@@H]1C)C4=O [UMN56] | 0.048 | 0.05 | 5.50 |  |  | 
14 | CO[C@H]1/C=C/O[C@@]2(C)Oc3c(C)c(O)c4c(c3C2=O)C2=NC3(CCN(CC(C)C)CC3)NC2=C(NC(=O)/C(C)=C/C=C/[C@H](C)[C@H](O)[C@@H](C)[C@@H](O)[C@@H](C)[C@H](OC(=O)N2CCN(c3ccccc3)CC2)[C@@H]1C)C4=O [UMN58] | 0.09 | 0.049 | 0.13 |  |  | 
15 | CO[C@H]1/C=C/O[C@@]2(C)Oc3c(C)c(O)c4c(c3C2=O)C2=NC3(CCN(CC(C)C)CC3)NC2=C(NC(=O)/C(C)=C/C=C/[C@H](C)[C@H](O)[C@@H](C)[C@@H](O)[C@@H](C)[C@H](OC(=O)N2CCCC2(C)C)[C@@H]1C)C4=O [UMN61] | 0.08 | 0.052 | 0.17 |  |  | 
16 | CO[C@H]1/C=C/O[C@@]2(C)Oc3c(C)c(O)c4c(c3C2=O)C2=NC3(CCN(CC(C)C)CC3)NC2=C(NC(=O)/C(C)=C/C=C/[C@H](C)[C@H](O)[C@@H](C)[C@@H](O)[C@@H](C)[C@H](OC(=O)N2CCN(C(C)(C)C)CC2)[C@@H]1C)C4=O [UMN63] | 0.077 | 0.043 | 3.60 |  |  | 
17 | CO[C@H]1/C=C/O[C@@]2(C)Oc3c(C)c(O)c4c(c3C2=O)C2=NC3(CCN(CC(C)C)CC3)NC2=C(NC(=O)/C(C)=C/C=C/[C@H](C)[C@H](O)[C@@H](C)[C@@H](O)[C@@H](C)[C@H](OC(=O)N2CCC(N(C)C)CC2)[C@@H]1C)C4=O [UMN74] | 0.12 | 0.13 |  |  |  | 
18 | CO[C@H]1/C=C/O[C@@]2(C)Oc3c(C)c(O)c4c(c3C2=O)C2=NC3(CCN(CC(C)C)CC3)NC2=C(NC(=O)/C(C)=C/C=C/[C@H](C)[C@H](O)[C@@H](C)[C@@H](O)[C@@H](C)[C@H](OC(=O)N2CCC(C)(C)C2)[C@@H]1C)C4=O [UMN75] | 0.13 | 0.035 |  |  |  | 
19 | CO[C@H]1/C=C/O[C@@]2(C)Oc3c(C)c(O)c4c(c3C2=O)C2=NC3(CCN(CC(C)C)CC3)NC2=C(NC(=O)/C(C)=C/C=C/[C@H](C)[C@H](O)[C@@H](C)[C@@H](O)[C@@H](C)[C@H](OC(=O)N2CCOCC2)[C@@H]1C)C4=O [UMN78] | 0.16 | 0.040 |  |  |  | 
20 | CO[C@H]1/C=C/O[C@@]2(C)Oc3c(C)c(O)c4c(c3C2=O)C2=NC3(CCN(CC(C)C)CC3)NC2=C(NC(=O)/C(C)=C/C=C/[C@H](C)[C@H](O)[C@@H](C)[C@@H](O)[C@@H](C)[C@H](OC(=O)N2CCCC2)[C@@H]1C)C4=O [UMN79] | 0.18 | 0.030 |  |  |  | 
21 | COC(=O)Cn1cc(CNC(=O)O[C@H]2[C@H](C)[C@H](O)[C@H](C)[C@@H](O)[C@@H](C)/C=C/C=C(\C)C(=O)NC3=C4NC5(CCN(CC(C)C)CC5)N=C4c4c(c(O)c(C)c5c4C(=O)[C@@](C)(O/C=C/[C@H](OC)[C@H]2C)O5)C3=O)nn1 [UMN84] | 0.13 | 0.15 |  |  |  | 
22 | CO[C@H]1/C=C/O[C@@]2(C)Oc3c(C)c(O)c4c(c3C2=O)C2=NC3(CCN(CC(C)C)CC3)NC2=C(NC(=O)/C(C)=C/C=C/[C@H](C)[C@H](O)[C@@H](C)[C@@H](O)[C@@H](C)[C@H](OC(=O)N2CCNCC2)[C@@H]1C)C4=O [UMN86] | 0.11 | 0.10 |  |  |  | 
23 | CO[C@H]1/C=C/O[C@@]2(C)Oc3c(C)c(O)c4c(c3C2=O)C2=NC3(CCN(CC(C)C)CC3)NC2=C(NC(=O)/C(C)=C/C=C/[C@H](C)[C@H](O)[C@@H](C)[C@@H](O)[C@@H](C)[C@H](OC(=O)NC2CC(C)(C)N(Cc3ccccc3)C(C)(C)C2)[C@@H]1C)C4=O [UMN87] | 0.23 | 0.30 |  |  |  | 
24 | CO[C@H]1/C=C/O[C@@]2(C)Oc3c(C)c(O)c4c(c3C2=O)C2=NC3(CCN(CC(C)C)CC3)NC2=C(NC(=O)/C(C)=C/C=C/[C@H](C)[C@H](O)[C@@H](C)[C@@H](O)[C@@H](C)[C@H](OC(=O)NC2CC(C)(C)N(C)C(C)(C)C2)[C@@H]1C)C4=O [UMN91] | 0.11 | 0.10 |  |  |  | 
